Experimental data reported in ChEMBL document CHEMBL5385973, “Progress in small-molecule inhibitors targeting PD-L1” (RSC Med Chem, 2024).

Key:
[1] = target: T1, Programmed cell death protein 1/Programmed cell death 1 ligand 1 (Homo sapiens, UniProt Q9NZQ7); experiment: Inhibition of PD-1/PD-L1 (unknown origin) interaction incubated for 2 hr by TR-FRET assay; format: protein-complex assay
Jurkat = experiment: Induction of T cell activation in human Jurkat T cells overexpressing PD-1 co-cultured with Chinese hamster CHO cells overexpressing PD-L1 assessed as increase in luciferase activity incubated for 6 hrs by Bio-GloTM reagent based immune checkpoint blockade assay; format: functional
[2] = target: T1, Programmed cell death protein 1/Programmed cell death 1 ligand 1; experiment: Inhibition of PD-1 (unknown origin)/PD-L1 (unknown origin) interaction by HTRF binding assay; format: protein-complex assay
[3] = target: Programmed cell death 1 ligand 1 (Homo sapiens) (UniProt Q9NZQ7); experiment: Binding affinity to PD-L1 (unknown origin) assessed as Gibbs free energy change
[4] = target: T1, Programmed cell death protein 1/Programmed cell death 1 ligand 1; experiment: Inhibition of PD-1/PD-L1 interaction (unknown origin) by TR-FRET assay; format: protein-complex assay
[5] = target: T1, Programmed cell death protein 1/Programmed cell death 1 ligand 1; experiment: Inhibition of human […] interaction incubated for 15 mins by TR-FRET assay; format: protein-complex assay
[6] = target: T1, Programmed cell death protein 1/Programmed cell death 1 ligand 1; experiment: Inhibition of PD-1/PD-L1 interaction (unknown origin) by AlphaLISA assay relative to control; format: protein-complex assay
[7] = target: T1, Programmed cell death protein 1/Programmed cell death 1 ligand 1; experiment: Inhibition of human PD-1/PD-L1 interaction incubated for 24 hrs by HTRF assay; format: protein-complex assay
[8] = target: T1, Programmed cell death protein 1/Programmed cell death 1 ligand 1; experiment: Inhibition of PD-1/PD-L1 (unknown origin) protein-protein interaction incubated for 15 mins by TR-FRET assay; format: protein-complex assay
[9] = target: T1, Programmed cell death protein 1/Programmed cell death 1 ligand 1; experiment: Inhibition of PD-1/PD-L1 (unknown origin) interaction incubated for 1 hr by HTRF assay; format: protein-complex assay
[10] = target: T1, Programmed cell death protein 1/Programmed cell death 1 ligand 1; experiment: Inhibition of PD-1/PD-L1 (unknown origin) interaction; format: protein-complex assay

T1 sequence (Q15116 whole entry): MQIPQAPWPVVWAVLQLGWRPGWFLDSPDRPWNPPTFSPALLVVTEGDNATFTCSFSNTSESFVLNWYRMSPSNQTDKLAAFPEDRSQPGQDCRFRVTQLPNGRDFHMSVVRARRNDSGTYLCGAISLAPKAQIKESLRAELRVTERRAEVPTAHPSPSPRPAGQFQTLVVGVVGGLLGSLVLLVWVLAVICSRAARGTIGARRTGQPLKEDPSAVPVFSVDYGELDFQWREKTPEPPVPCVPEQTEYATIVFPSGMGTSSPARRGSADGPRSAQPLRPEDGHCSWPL
T1 sequence (Q9NZQ7 whole entry): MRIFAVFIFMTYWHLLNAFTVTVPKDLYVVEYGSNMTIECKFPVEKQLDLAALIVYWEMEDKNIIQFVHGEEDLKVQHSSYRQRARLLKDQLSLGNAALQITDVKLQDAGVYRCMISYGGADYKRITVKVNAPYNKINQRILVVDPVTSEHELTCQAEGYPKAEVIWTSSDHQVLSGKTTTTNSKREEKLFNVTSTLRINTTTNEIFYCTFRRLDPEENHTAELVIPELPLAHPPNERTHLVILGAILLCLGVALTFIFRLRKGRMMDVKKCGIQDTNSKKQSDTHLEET
Programmed cell death 1 ligand 1 (Homo sapiens), sequence (Q9NZQ7 whole entry): as above

Cn1nc(Nc2cccc(-c3ccc4c(c3)OCCO4)c2Cl)c2ccc(CN[C@H](CO)C(=O)O)cc21
IC50 [1]: 9.6 nM
EC50 (Jurkat): 1610 nM

O=C(O)[C@H](CO)NCc1cc(Cl)c(OCc2cccc(-c3ccccc3)c2Br)cc1OCc1cccnc1
IC50 [2]: 1.1 nM

Fc1cccc(-c2nccc(N[C@@H]3CO[C@@H]4[C@H]3OC[C@H]4NCc3ccccn3)n2)c1
deltaG [3]: -134 kJ/mol

CC(C)OC(=O)[C@H](CO)NCc1cc(Cl)c(OCc2cccc(-c3ccccc3)c2Br)cc1OCc1cccnc1
IC50 [2]: 45.2 nM

Cc1c(COc2cc(OCc3cccc(C#N)c3)c(CN3C[C@H](O)C[C@@H]3C(=O)O)cc2Cl)cccc1-c1ccc2c(c1)OCCO2
deltaG [3]: -142 kJ/mol

Cc1c(COc2cc(OCc3cccc(C#N)c3)c(CNC(CO)(CO)CO)cc2Cl)cccc1-c1cccc(-c2cc(C(=O)N3CC[C@@H](O)C3)no2)c1
IC50 [4]: 23 nM

CS(=O)(=O)c1cncc(CCc2nc(OCc3cccc(-c4cccc(-c5ccc6c(c5)C[C@H](N)C6)c4Cl)c3Cl)c(Br)cc2CN2CCCC[C@@H]2C(=O)O)c1
IC50 [5]: 0.09 nM

Cc1c(COc2cc(OCc3cncc(C#N)c3)c(CNC(C)(C)C(=O)O)cc2Cl)cccc1-c1ccccc1
IC50 [6]: 2.7 nM

Cc1c(/C=C/c2ccc(CNC(C)(CO)C(=O)O)cc2C(F)(F)F)cccc1-c1ccc2c(c1)OCCO2 (centres undefined)
IC50 [7]: 18 nM

Cc1cc(/C=C/c2ccc3cc(N(C)C)ccc3[n+]2C)c(C)n1-c1ccccc1
IC50 [8]: 29.7 nM

Cc1c(COc2cc(OCc3cncc(C#N)c3)c(CN(CCCN(C)C)CCS(=O)(=O)O)cc2Cl)cccc1-c1ccc2c(c1)OCCO2
IC50 [6]: 2.7 nM

Cc1c(COc2cc(OCc3ccc(OC(F)(F)F)nc3)c(N3CCCCC3C(=O)O)cc2Cl)cccc1-c1ccccc1 (centres undefined)
IC50 [9]: 56.6 nM

O=C(O)[C@H](CO)NCc1ccc(Nc2nsc3c(-c4ccc5c(c4)OCCO5)cccc23)c(Br)c1
IC50 [10]: 5.7 nM
